test system: not listed separately; experiment: Liver Microsomal Clearance Assay (human); type: in vitro ADME; settings: extraction ratio, human liver microsomes, 1 μM compound
Procedure: (§1) The in vitro microsomal clearance assay is designed to assess potential risks associated with hepatic metabolic stability of compounds. The test compound (1 μM) was incubated with liver microsomes (0.5 mg/mL) from different species (mouse, rat, monkey, dog and human) and NADPH (1 mM) in 100 mM potassium phosphate buffer at 37° C. At specific reaction time points (0, 5, 10 and 30 minutes), reaction aliquots were removed and reactions were terminated by addition of ice cold acetonitrile containing mass spectrometry internal standard. The samples were centrifuged and the supernatants were analyzed by LC-MS/MS. In vitro metabolic half-life (t1/2, min) and intrinsic clearance (CLint, μL/min/mg) are based on the rate and extent of metabolism of the test compound as determined by the disappearance of the parent compound from the reaction mixture. These values may be scaled to predict hepatic metabolic clearance rate (CLh, mL/min/kg) and extraction ratio (ER, expressed as a ratio of the predicted hepatic metabolic clearance to hepatic blood flow in that species). In general, compounds with high predictedCLint or ER in vitro are considered to be at high risk for exposure-limiting metabolism in vivo.

Compound	ER Human
CCCS(=O)(=O)Nc1cc(Cl)cc(-c2nn(C(C)C)cc2-c2ccnc(NC[C@H](C)NC(=O)OC)n2)c1F [Compound 1, Methyl N-[(2S)-1-[(4-{3-[5-chloro-2-fluoro-3-(propane-1-sulfonamido)phenyl]-1-(propan-2-yl)-1H-pyrazol-4-yl]pyrimidin-2-yl)amino]propan-2-yl]carbamate]	0.66
CCCS(=O)(=O)Nc1cccc(-c2nn(C(C)C)cc2-c2ccnc(NC[C@H](C)NC(=O)OC)n2)c1F [Compound 3, methyl N-[(2S)-1-[(4-{3-[2-fluoro-3-(propane-1-sulfonamido)phenyl]-1-(propan-2-yl)-1H-pyrazol-4-yl}pyrimidin-2-yl)amino]propan-2-yl]carbamate]	0.69
COC(=O)N[C@@H](C)CNc1nccc(-c2cn(C(C)C)nc2-c2c(F)ccc(NS(C)(=O)=O)c2F)n1 [Compound 6, methyl N-[(2S)-1-({4-[3-(2,6-difluoro-3-methanesulfonamidophenyl)-1-(propan-2-yl)-1H-pyrazol-4-yl]pyrimidin-2-yl]amino)propan-2-yl]carbamate]	0.69

test system: not listed separately; experiment: Liver Microsomal Clearance Assay (mouse); type: in vitro ADME; settings: extraction ratio, mouse liver microsomes, 1 μM compound
Procedure: as §1

Compound	ER Mouse
CCCS(=O)(=O)Nc1cc(Cl)cc(-c2nn(C(C)C)cc2-c2ccnc(NC[C@H](C)NC(=O)OC)n2)c1F [Compound 1, Methyl N-[(2S)-1-[(4-{3-[5-chloro-2-fluoro-3-(propane-1-sulfonamido)phenyl]-1-(propan-2-yl)-1H-pyrazol-4-yl]pyrimidin-2-yl)amino]propan-2-yl]carbamate]	0.79
CCCS(=O)(=O)Nc1cccc(-c2nn(C(C)C)cc2-c2ccnc(NC[C@H](C)NC(=O)OC)n2)c1F [Compound 3, methyl N-[(2S)-1-[(4-{3-[2-fluoro-3-(propane-1-sulfonamido)phenyl]-1-(propan-2-yl)-1H-pyrazol-4-yl}pyrimidin-2-yl)amino]propan-2-yl]carbamate]	0.85

test system: A375 melanoma cell line (B-Raf V600E); experiment: A375 Cellular Proliferation Assay (A375 CP); type: cell-based; settings: Homo sapiens, A-375, 48 h; A375-luc cells, 2 days; read-out: A375 CP IC50
Procedure: A375-luc cells engineered to express luciferase are plated to 384-well white clear bottom plates as 1,500 cells/50 μl/well in DMEM containing 10% FBS. Compounds of the invention dissolved in 100% DMSO at appropriate concentrations are transferred to the cells by a robotic Pin Tool (100 nl). The cells are incubated for 2 days at […], then 25 μl of BrightGlo™ is added to each well and the plates are read by luminescence.

Compound	IC50
CCCS(=O)(=O)Nc1cc(Cl)cc(-c2nn(C(C)C)cc2-c2ccnc(NC[C@H](C)NC(=O)OC)n2)c1F [Compound 1, Methyl N-[(2S)-1-[(4-{3-[5-chloro-2-fluoro-3-(propane-1-sulfonamido)phenyl]-1-(propan-2-yl)-1H-pyrazol-4-yl]pyrimidin-2-yl)amino]propan-2-yl]carbamate]	2 nM
COC(=O)N[C@@H](C)CNc1nccc(-c2cn(C(C)C)nc2-c2cc(Cl)cc(NS(C)(=O)=O)c2)n1 [Compound 2, methyl N-[(2S)-1-({4-[3-(3-chloro-5-methanesulfonamidophenyl)-1-(propan-2-yl)-1H-pyrazol-4-yl]pyrimidin-2-yl}amino)propan-2-yl]carbamate]	18 nM
CCCS(=O)(=O)Nc1cccc(-c2nn(C(C)C)cc2-c2ccnc(NC[C@H](C)NC(=O)OC)n2)c1F [Compound 3, methyl N-[(2S)-1-[(4-{3-[2-fluoro-3-(propane-1-sulfonamido)phenyl]-1-(propan-2-yl)-1H-pyrazol-4-yl}pyrimidin-2-yl)amino]propan-2-yl]carbamate]	2 nM
CCCS(=O)(=O)Nc1cc(Cl)cc(-c2nn(C(C)C)cc2-c2ccnc(NC[C@H](C)NC(=O)OC)n2)c1 [Compound 5, methyl N-[(2S)-1-[(4-{3-[3-chloro-5-(propane-1-sulfonamido)phenyl]-1-(propan-2-yl)-1H-pyrazol-4-yl]pyrimidin-2-yl)amino]propan-2-yl]carbamate]	1 nM
COC(=O)N[C@@H](C)CNc1nccc(-c2cn(C(C)C)nc2-c2c(F)ccc(NS(C)(=O)=O)c2F)n1 [Compound 6, methyl N-[(2S)-1-({4-[3-(2,6-difluoro-3-methanesulfonamidophenyl)-1-(propan-2-yl)-1H-pyrazol-4-yl]pyrimidin-2-yl]amino)propan-2-yl]carbamate]	46 nM
COC(=O)N[C@@H](C)CNc1nccc(-c2cn(C(C)C)nc2-c2cccc(NS(=O)(=O)CCC(F)(F)F)c2F)n1 [Compound 8]	27 nM
COC(=O)N[C@@H](C)CNc1nccc(-c2cn(C(C)C)nc2-c2cc(F)cc(NS(C)(=O)=O)c2F)n1 [Compound 10, methyl N-[(2S)-1-({4-[3-(2,5-difluoro-3-methanesulfonamidophenyl)-1-(propan-2-yl)-1H-pyrazol-4-yl]pyrimidin-2-yl]amino)propan-2-yl]carbamate]	3 nM
CCn1cc(-c2ccnc(NC[C@H](C)NC(=O)OC)n2)c(-c2cc(Cl)cc(NS(C)(=O)=O)c2F)n1 [Compound 11, methyl N-[(2S)-1-({4-[3-(5-chloro-2-fluoro-3-methanesulfonamidophenyl)-1-ethyl-1H-pyrazol-4-yl]pyrimidin-2-yl}amino)propan-2-yl]carbamate]	3 nM
COC(=O)N[C@@H](C)CNc1nccc(-c2cn(C(C)C)nc2-c2cc(C)cc(NS(C)(=O)=O)c2F)n1 [Compound 12, methyl N-[(2S)-1-({4-[3-(2-fluoro-3-methanesulfonamido-5-methylphenyl)-1-(propan-2-yl)-1H-pyrazol-4-yl]pyrimidin-2-yl]amino)propan-2-yl]carbamate]	4 nM
COC(=O)N[C@@H](C)CNc1nccc(-c2cn(C(C)C)nc2-c2ccnc(NS(C)(=O)=O)c2Cl)n1 [Compound 14, methyl N-[(2S)-1-({4-[3-(3-chloro-2-methanesulfonamidopyridin-4-yl)-1-(propan-2-yl)-1H-pyrazol-4-yl]pyrimidin-2-yl}amino)propan-2-yl]carbamate]	79 nM
COC(=O)N[C@@H](C)CNc1nccc(-c2cn(C(C)C)nc2-c2cc(F)cc(NS(C)(=O)=O)c2Cl)n1 [Compound 15, Methyl N-[(2S)-1-({4-[3-(2-chloro-5-fluoro-3-methanesulfonamidophenyl)-1-(propan-2-yl)-1H-pyrazol-4-yl]pyrimidin-2-yl}amino)propan-2-yl]carbamate]	4 nM
COC(=O)N[C@@H](C)CNc1nccc(-c2cn(C(C)C)nc2-c2ccnc(NS(C)(=O)=O)c2F)n1 [Compound 16, methyl N-[(2S)-1-({4-[3-(3-fluoro-2-methanesulfonamidopyridin-4-yl)-1-(propan-2-yl)-1H-pyrazol-4-yl]pyrimidin-2-yl}amino)propan-2-yl]carbamate]	1400 nM
CC(C)n1cc(-c2ccnc(NCCC#N)n2)c(-c2cc(Cl)cc(NS(C)(=O)=O)c2F)n1 [Compound 17, N-[5-chloro-3-(4-{2-[(2-cyanoethyl)amino]pyrimidin-4-yl}-1-(propan-2-yl)-1H-pyrazol-3-yl)-2-fluorophenyl]methanesulfonamide]	2 nM
CCS(=O)(=O)Nc1c(F)c(F)cc(-c2nn(C(C)C)cc2-c2ccnc(NC[C@H](C)NC(=O)OC)n2)c1Cl [Compound 18, methyl N-[(2S)-1-({4-[3-(2-chloro-3-ethanesulfonamido-4,5-difluorophenyl)-1-(propan-2-yl)-1H-pyrazol-4-yl]pyrimidin-2-yl}amino)propan-2-yl]carbamate]	12 nM
COC(=O)N[C@@H](C)CNc1nccc(-c2cn(C(C)C)nc2-c2ccc(F)c(NS(C)(=O)=O)c2F)n1 [Compound 19, methyl N-[(2S)-1-({4-[3-(2,4-difluoro-3-methanesulfonamidophenyl)-1-(propan-2-yl)-1H-pyrazol-4-yl]pyrimidin-2-yl}amino)propan-2-yl]carbamate]	93 nM
COC(=O)N[C@H](C)CNc1nccc(-c2cn(C(C)C)nc2-c2cc(Cl)cc(NS(C)(=O)=O)c2F)n1 [Compound 20, methyl N-[(2R)-1-({4-[3-(5-chloro-2-fluoro-3-methanesulfonamidophenyl)-1-(propan-2-yl)-1H-pyrazol-4-yl]pyrimidin-2-yl}amino)propan-2-yl]carbamate]	7 nM
COC(=O)N[C@@H](C)CNc1nccc(-c2cn(C(C)C)nc2-c2cc(F)c(F)c(NS(C)(=O)=O)c2F)n1 [Compound 21, methyl N-[(2S)-1-({4-[1-(propan-2-yl)-3-(2,4,5-trifluoro-3-methanesulfonamidophenyl)-1H-pyrazol-4-yl]pyrimidin-2-yl}amino)propan-2-yl]carbamate]	45 nM
COC(=O)N[C@@H](C)CNc1nccc(-c2cn(C(C)C)nc2-c2cc(Cl)cc(NS(C)(=O)=O)c2Cl)n1 [Compound 22, methyl N-[(2S)-1-({4-[3-(2,5-dichloro-3-methanesulfonamidophenyl)-1-(propan-2-yl)-1H-pyrazol-4-yl]pyrimidin-2-yl}amino)propan-2-yl]carbamate]	6 nM
COC(=O)N[C@@H](C)CNc1nccc(-c2cn(C(C)C)nc2-c2cccc(NS(C)(=O)=O)c2)n1 [Compound 23, methyl N-[(2S)-1-({4-[3-(3-methanesulfonamidophenyl)-1-(propan-2-yl)-1H-pyrazol-4-yl]pyrimidin-2-yl}amino)propan-2-yl]carbamate]	1150 nM
COC(=O)N[C@@H](C)CNc1nccc(-c2cn(C(C)C)nc2-c2cc(Cl)cc(NS(=O)(=O)C3CC3)c2F)n1 [Compound 25, methyl N-[(2S)-1-({4-[3-(5-chloro-3-cyclopropanesulfonamido-2-fluorophenyl)-1-(propan-2-yl)-1H-pyrazol-4-yl]pyrimidin-2-yl}amino)propan-2-yl]carbamate]	2 nM
CCS(=O)(=O)Nc1c(F)ccc(-c2nn(C(C)C)cc2-c2ccnc(NC[C@H](C)NC(=O)OC)n2)c1F [Compound 26, methyl N-[(2S)-1-({4-[3-(3-ethanesulfonamido-2,4-difluorophenyl)-1-(propan-2-yl)-1H-pyrazol-4-yl]pyrimidin-2-yl}amino)propan-2-yl]carbamate]	14 nM
CC(C)n1cc(-c2ccnc(NCCN(C)C)n2)c(-c2cc(Cl)cc(NS(C)(=O)=O)c2F)n1 [Compound 28, N-{5-chloro-3-[4-(2-{[2-(dimethylamino)ethyl]amino}pyrimidin-4-yl)-1-(propan-2-yl)-1H-pyrazol-3-yl]-2-fluorophenyl}methanesulfonamide]	550 nM
CC(C)n1cc(-c2ccnc(N)n2)c(-c2cc(Cl)cc(NS(C)(=O)=O)c2F)n1 [Compound 30, N-{3-[4-(2-aminopyrimidin-4-yl)-1-(propan-2-yl)-1H-pyrazol-3-yl]-5-chloro-2-fluorophenyl}methanesulfonamide]	69 nM
COC(=O)N[C@@H](C)CNc1nccc(-c2c[nH]nc2-c2cc(Cl)cc(NS(C)(=O)=O)c2F)n1 [Compound 31]	180 nM
COC(=O)N[C@@H](C)CNc1nccc(-c2cn(C3CCCCO3)nc2-c2cc(Cl)cc(NS(C)(=O)=O)c2F)n1 (stereo partly drawn) [Compound 33, Methyl N-[(2S)-1-({4-(3-(5-chloro-2-fluoro-3-methanesulfonamidophenyl)-1-(oxan-2-yl)-1H-pyrazol-4-yl]pyrimidin-2-yl}amino)propan-2-yl]carbamate]	7 nM
CCCS(=O)(=O)Nc1c(F)ccc(-c2nn(C(C)C)cc2-c2ccnc(NC[C@H](C)NC(=O)OC)n2)c1F [Compound 34]	13 nM
